Data as given in patent US20210024583A1, “COMPOSITIONS AND METHODS FOR PEPTIDE MEDIATED OLIGONUCLEOTIDE DELIVERY TO THE CENTRAL NERVOUS SYSTEM” (The Regents of the University of California, priority 2019, published 2021).
Entries after “also recorded” stand apart in the source; their conditions may differ. Where no end group is shown, it is not given here.

How the values were obtained:
[1] = Brain distribution of FITC labeled siαSyn after single i.p. injection (co-labeling NeuN, GFAP); format: in vivo, mouse
Experimental: To determine the co-localization between fluorescein isothiocyanate (FITC)-siαSyn and cellular markers, double labeling experiments were performed as previously described (44, 45). […] vibratome sections were immunolabeled with the rabbit polyclonal antibody against α-synuclein (Chemicon, affinity purified polyclonal), NeuN (neuronal marker, Millipore) or GFAP (astroglial marker, Chemicon) and the immunoreactive structures were detected with the Tyramide Signal Amplification™-Direct (Red) system (NEN Life Sciences) while the siRNA was directly visualized by the appended FITC label. Sections were imaged with a Zeiss 63X™ (N.A. 1.4) objective on an Axiovert 35™ microscope (Zeiss) with an attached MRC1024™ LSCM system (BioRad).
4 hours after injection, mice were sacrificed, whole brain removed and fixed. (A,B) Sections were stained for the neuronal marker NeuN and the nuclear stain DAPI and then visualized for co-localization with the FITC labeled siRNA. (D,E) Sections were stained for the astrocytic marker GFAP and the nuclear stain DAPI and then visualized for co-localization with the FITC labeled siRNA.

α-synuclein = α-synuclein levels and co-localization in cortex after single i.p. FITC siαSyn:peptide; format: in vivo, mouse; settings: single i.p. injection, 4 hours
Experimental: To determine the co-localization between fluorescein isothiocyanate (FITC)-siαSyn and cellular markers, double labeling experiments were performed as previously described (44, 45). 40 p.m-thick vibratome sections were immunolabeled with the rabbit polyclonal antibody against α-synuclein (Chemicon, affinity purified polyclonal), NeuN (neuronal marker, Millipore) or GFAP (astroglial marker, Chemicon) and the immunoreactive structures were detected with the Tyramide Signal Amplification™-Direct (Red) system (NEN Life Sciences) while the siRNA was directly visualized by the appended FITC label. Sections were imaged with a Zeiss 63X™ (N.A. 1.4) objective on an Axiovert 35™ microscope (Zeiss) with an attached MRC1024™ LSCM system (BioRad) [22].
4 hours after injection, mice were sacrificed, whole brain removed and fixed. Sections were stained for α-synuclein and the nuclear marker, DAPI and then visualized for co-localization with the FITC labeled siRNA.

Sequence: RLTRKRGLKLAGGGGGRRRRRRRRR [ApoB^11]
- co-labeling of FITC labeled siαSyn RNA with astrocyte marker GFAP ([1]; 4 hours after i.p. injection): co-labeled with the astrocyte marker, GFAP in the cell body but not in the processes
- cellular localization of FITC labeled siαSyn in brain (co-labeling with NeuN, GFAP) ([1]; 4 hours after single i.p. injection, 50 μg, siRNA conjugated to the named peptide): delivered siαSyn RNA to neuronal cells; also recorded: primarily to neurons and only to a lesser extent the astrocytes
- FITC labeled siRNA delivered to NeuN positive neurons, compared with C2-9r peptide ([1]; α-syn tg mice, 4 hours after i.p. injection): significantly greater
- co-localization of FITC label of siαSyn with αSyn expressing cells (α-synuclein): co-localized with αSyn expressing cells
